# Reference: patent US20130225548A1, “Pyridine Derivative and Medicinal Agent” (NIPPON SHINYAKU CO., LTD., priority 2010, published 2013)
# Structures can show the parent of a compound that is named as a salt.
# Target: T1, Syk tyrosine kinase (Homo sapiens, UniProt P43405)
# T1 construct: purchased Carna Biosciences, Inc
# Experiment: Test for Syk tyrosine kinase inhibitory activity (ELISA)
# Type: biochemical
# Details: Syk tyrosine kinase (Carna Biosciences), 25 μM ATP in substrate solution, 30° C. 1 hour, n=2; read-out: Evaluation (IC50, concentration inhibiting the tyrosine kinase activity at 50%)
# Description: Test Example 1: Test for Syk Tyrosine Kinase Inhibitory Activity
# 1. Preparation of Test Substance
# A test substance was prepared at 10 mM in dimethyl sulfoxide (DMSO), and further diluted with DMSO to concentrations of 1000, 300, 100, 30, 10, 3, 1, 0.3, 0.1, 0.03, and 0.01 μM. The resulting solutions were further diluted to 20-fold with an assay buffer, whereby test substance solutions were prepared. As a negative control, a solution obtained by diluting DMSO to 20-fold with an assay buffer was used. As the assay buffer, a buffer containing 15 mM Tris-HCl (pH 7.5), 0.01 (v/v) % Tween-20, and 1 mM dithiothreitol was used.
# 2. Measurement of Syk Tyrosine Kinase Inhibitory Activity
# The activity was measured using the ELISA method. Each of the test substance solutions was added to a streptavidine-coated 96-well place (DELFIA Strip Plate 8×12 wells, PerkinElmer Co., Ltd,) at 10 μL per well (n=2), and a substrate solution (625 nM biotinylated peptide substrate, 25 μM ATP, 25 mM MgCl2, 15 mM Tris-HCl (pH 7.5), 0.01 (v/v) % Tween-20, 1 mM dithiothreitol) was added to the plate at 20 μL per well, and the resulting mixture was stirred. Finally, Syk tyrosine kinase (Carna Biosciences, Inc.) (previously diluted to 0.025 nM with the assay buffer) was added to the plate at 20 μL per well, and the resulting mixture was stirred. A reaction was allowed to proceed at 30° C. for 1 hour. After the plate was washed 4 times with a washing buffer (50 mM Tris-HCl (pH 7.5, 150 mM NaCl, 0.02 (v/v) % Tween-20), a blocking buffer (0.1% bovine serum albumin, 50 mM Tris-HCl (pH 7.5), 150 mM NaCl, 0.02 (v/v) % Tween-20) was added to the plate at 150 μL per well, and blocking was performed at 30° C. for 30 minutes. Then, the blocking buffer was removed, and a horseradish peroxidase-labeled anti-phosphorylated tyrosine antibody (BD Biosciences, Inc.) (previously diluted to 10000-fold with the blocking buffer) was added to the plate at 100 μL per well, and the plate was incubated at 30° C. for 30 minutes. After the plate was washed 4 times with the washing buffer, a 3,3′,5,5′-tetramethylbenzidine solution (Sigma-Aldrich Co., Ltd.) was added to the plate at 100 μL per well to develop the color for 10 minutes. The reaction was stopped by adding 0.1 M sulfuric acid at 100 μL per well. The absorbance at 450 nm was measured using a microplate reader (Multiskan F C, Thermo Fisher Scientific K,K.).
# 3. Analysis of Measurement Results
# A non-linear regression analysis was performed for the measured absorbance using the SAS system (SAS institute. Inc.), and a concentration of each of the test substances: inhibiting the tyrosine kinase activity at 50% (IC50 ) was calculated. A case where IC50 is […] was evaluated as ***, a case where IC50 is 5 nM or more and less than 50 nM was evaluated as **, and a case where IC50 is 50 nM or more and less than 500 nM was evaluated as *, which are shown in the column of evaluation item.
row,IC50,SMILES
1,5 to 50 nM,"N#Cc1ccnc(Nc2cc(C3CC3)cc(-c3cccc(N4CCCN(C(N)=O)CC4)c3)n2)c1 [Example 78, 4-(3-{6-[(4-cyanopyridin-2-yl)amino]-4-cyclopropylpyridin-2-yl}phenyl)-1,4-diazepane-1-carboxamide hydrochloride]"
2,50 to 500 nM,"N#Cc1ccnc(Nc2cc(C3CC3)cc(-c3ccc(N4CCNCC4=O)nc3)n2)c1 [Example 66, 2-{[4-cyclopropyl-6′-(2-oxopiperazin-1-yl)-2,3′-bipyridin-6-yl]amino}pyridine-4-carbonitrile hydrochloride]"
3,5 to 50 nM,"N#Cc1ccnc(Nc2cc(C3CC3)cc(-c3ccc(N4CCC(CO)CC4)nc3)n2)c1 [Example 26, 2-({4-cyclopropyl-6′-[4-(hydroxymethyl)piperidin-1yl]-2,3′-bipyridin-6-yl}amino)pyridine-4-carbonitrile hydrochloride]"
4,50 to 500 nM,"N#Cc1ccnc(Nc2cc(C3CC3)cc(-c3ccc4c(c3)ncn4[C@@H]3CCCC[C@H]3O)n2)c1 (relative stereo) [Example 152, 2-[(4-cyclopropyl-6-{1-[trans-2-hydroxycyclohexyl]-1H-benzimidazol-5-yl}pyridin-2-yl)amino]pyridine-4-carbonitrile hydrochloride]"
5,5 to 50 nM,"CS(=O)(=O)N1CCN(c2ccc(-c3cc(C4CC4)cc(Nc4cc(C#N)ccn4)n3)cn2)CC1 [Example 58, 2-({4-cyclopropyl-6′-[4-(methanesulfonyl)piperazin-1-yl]-2,3′-bipyridin-6-yl}amino)pyridine-4-carbonitrile hydrochloride]"
6,50 to 500 nM,"CNC(=O)C1CCCN1c1ccc(-c2cc(C3CC3)cc(Nc3cc(C#N)ccn3)n2)cn1 (stereo not shown) [Example 39, 1-{6-[(4-cyanopyridin-2-yl)amino]-4-cyclopropyl-2,3′-bipyridin-6′-yl}-N-methylpyrrolidine-2-carboxamide hydrochloride]"
7,50 to 500 nM,"N#Cc1ccnc(Nc2cc(C3CC3)cc(-c3ccc(CN4CCCN(C(N)=O)CC4)nc3)n2)c1 [Example 154, 4-({6-[(4-cyanopyridin-2-yl)amino]-4-cyclopropyl-2,3′-bipyridin-6′-yl}methyl)-1,4-diazepane-1-carboxamide hydrochloride]"
8,5 to 50 nM,"N#Cc1ccnc(Nc2cc(C3CC3)cc(-c3cncc(OC4CCN(CC(N)=O)CC4)c3)n2)c1 [Example 103, 2-[4-({6-[(4-cyanopyridin-2-yl)amino]-4-cyclopropyl-2,3′-bipyridin-5′-yl}oxy)-piperidin-1-yl]acetamide hydrochloride]"
9,5 to 50 nM,"N#Cc1ccnc(Nc2cc(C3CC3)cc(-c3cncc(CN4CCN(C(N)=O)CC4)c3)n2)c1 [Example 83, 4-({6-[(4-cyanopyridin-2-yl)amino]-4-cyclopropyl-2,3′-bipyridin-5′-yl}methyl)piperazine-1-carboxamide hydrochloride]"
10,< 5 nM,"N#Cc1ccnc(Nc2cc(C3CC3)cc(-c3ccc4nc(CO)n([C@H]5CC[C@H](O)CC5)c4c3)n2)c1 [Example 162, 2-({4-cyclopropyl-6-[1-(trans-4-hydroxycyclohexyl)-2-(hydroxymethyl)-1H-benzimidazol-6-yl]pyridin-2-yl}amino)pyridine-4-carbonitrile hydrochloride]"
11,5 to 50 nM,"Cn1ncc2ccc(-c3cc(C4CC4)cc(Nc4cc(C#N)ccn4)n3)cc21 [Example 37, 2{[4-cyclopropyl-6-(1-methyl-1H-indazol-6-yl)pyridin-2-yl]amino}pyridine-4-carbonitrile hydrochloride]"
12,5 to 50 nM,"N#Cc1ccnc(Nc2cc(C3CC3)cc(-c3ccnc(N4CCCN(C(N)=O)CC4)c3)n2)c1 [Example 76, 4-{6-[(4-cyanopyridin-2-yl)amino]-4-cyclopropyl-2,4′-bipyridin-2′-yl}-1,4-diazepane-1-carboxamide hydrochloride]"

row,SMILES,IC50
1,"Cn1cnc2cc(-c3cc(C4CC4)cc(Nc4cc(C#N)ccn4)n3)ccc21 [Example 15, 2-{[4-cyclopropyl-6-(1-methyl-1H-benzimidazol-5-yl)pyridin-2-yl]amino}pyridine-4-carbonitrile hydrocloride]",5 to 50 nM
